From patent US20230005594A1, “CLINICAL DECISION SUPPORT FOR PERSONALIZED ADAPTIVE PROSTATE CANCER THERAPY” (H. LEE MOFFITT CANCER CENTER AND RESEARCH INSTITUTE, INC., priority 2019, published 2023)
Where “and” joins values, the source holds several entries; their conditions need not be identical. Equal entries are not always repeated. Where two headings read alike, the source gives them in different places.

Tests used:
[1] = tested on: PCa; conditions: cited from earlier work
[2] = tested on: metastatic, hormone-sensitive PCa; conditions: cited from earlier work
[3] = tested on: hormone-refractory PCa; conditions: docetaxel added at end of ADT; cited from earlier work
[4] = tested on: advanced prostate cancer; conditions: patients with advanced prostate cancer; cited from earlier work
[5] = tested on: PCaSC; conditions: cited from earlier work
[6] = tested on: metastatic castration resistant prostate cancer (mCRPC); conditions: cited from earlier work
[7] = tested on: castration-resistant PCa; assay: Clinical trial of second-line intermittent AA therapy (NCT02415621); type: in vivo, human
Text: Prior theoretical, pre-clinical, and clinical studies have questioned the utilization of MTD treatment in non-curative settings. That is, continuous MTD treatment fails to consider the evolutionary dynamics of treatment presponse, where competition, adaptation and selection between treatment sensitive and resistant cells contribute to therapy failure. In fact, this strategy, by maximally selecting for resistant phenotypes and eliminating other competing populations, may actually accelerate the emergence of resistant populations—a well-studied evolutionary phenomenon termed “competitive release.” In part to address this issue, prior trials have used an intermittent on- and off-ADT (IADT) to reduce toxicity and delay time to progression (TTP). […]
Survival benefits have not been confirmed clinically, which can be due to the conservative trial designs of long on-treatment cycles (7-8 months) and short off-cycles. […] PSA values can be monitored every four weeks as done in the clinic. […] For Patient 36, relative PSA values of 50% or 90% of pre-treatment PSA levels as triggers to pause IADT and pre-treatment PSA levels to resume IADT yield longer TTP than the static triggers (PSA monitored every 4 weeks, IADT is paused if PSA<4 ng/mL for consecutive 36 weeks, and IADT resumes if PSA>10 ng/mL). […]

[8] = docetaxel plus ADT, added at beginning of hormone therapy
[9] = abiraterone plus gonadotropin-releasing hormone analog, AA-302 trial

| Compound | increase in overall survival time compared to ADT alone ([1]; docetaxel added at beginning of long-term hormone therapy) | TTP [1, 8] [months] | overall survival time [1, 8] | survival benefit ([2]; CHAARTED trial, LVD patients) | overall survival benefit ([2]; CHAARTED trial, patients with HVD) | increase in overall survival ([2]; GETUG-AFU15, high volume disease (HVD), DOC with continuous ADT, non-significant) [%] | survival benefit ([2]; GETUG-AFU15, low volume disease (LVD)) | overall survival benefit ([2]; STAMPEDE trial, median follow-up of 43 months) | increase in survival [3] [months] | survival [3] [months] | Total tumor regression rate (δS+δC), median [4] [day⁻¹] | Total tumor regression rate (δS+δC), range [4] [day⁻¹] | PCaSC docetaxel sensitivity as share of PCaC sensitivity [5] | PSA response rate [6, 9] [%] | median time to progression [6, 9] [months] | overall survival compared to prednisone or placebo ([6]; second-line hormone therapy) | median TTP ([7]; continuous MTD AA) [months] | median TTP ([7]; intermittent AA therapy, median not reached) |
| --- | --- | --- | --- | --- | --- | --- | --- | --- | --- | --- | --- | --- | --- | --- | --- | --- | --- | --- |
| CC(=O)O[C@@]12CO[C@@H]1C[C@H](O)[C@@]1(C)C(=O)[C@H](O)C3=C(C)[C@@H](OC(=O)[C@H](O)[C@@H](NC(=O)OC(C)(C)C)c4ccccc4)C[C@@](O)([C@@H](OC(=O)c4ccccc4)[C@H]21)C3(C)C [docetaxel] | 10-13 months | 20.2 | 81 months and 57.6 months | no statistically significant survival benefit | statistically significant overall survival benefit | 20 | no survival benefit | more than 12 months | 2.4 | 18.9 | 0.015 | 0.006 to 0.032 | about 25% | – | – | – | – | – |
| CC(=O)O[C@H]1CC[C@@]2(C)C(=CC[C@@H]3[C@@H]2CC[C@]2(C)C(c4cccnc4)=CC[C@@H]32)C1 [abiraterone acetate] | – | – | – | – | – | – | – | – | – | – | – | – | – | 62 | 11.1 | prolong overall survival | 13 | at least 33 months |
